Earlier results, collected in US20240307482A1, “TOPICAL COMPOSITIONS” (Illustris Pharmaceuticals, Inc., priority 2019, published 2024).

Tested on: wrinkles
Conditions: formulations with 10% concentration acetyl hexapeptide; after 30 days of trial use

acetyl hexapeptide-3
reduce the depth of wrinkles: up to 30%
